Measurements taken from patent US20110028447A1, “INDAZOLE DERIVATIVES” (Pfizer Inc., priority 2008, published 2011).
Where two headings read alike, the source gives them in different places.

How the values were obtained:
[1] = biological target: T1, human CB1 receptor (Homo sapiens, UniProt P21554); test: Human CB1 receptor binding, [3H] CP-55,940 displacement on HEK cell membranes; design: expressed in transfected cells; host or cells: HEK cells, doxycycline-induced; membrane preparation
How it was run: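 Membranes from doxycycline-induced HEK cells expressing human CB1 incubated 60 min at room temperature with [3H] CP-55,940 (final […]) in 50 mM Tris pH 7.4, 100 mM NaCl, 3 mM MgCl2, 0.2 mM EGTA, 0.04% BSA. Nonspecific binding defined with 50 μM WIN-55,212-2; filtration and scintillation counting gave EC50 and Ki.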

[2] = biological target: T1, human CB1 receptor; test: [35S] GTPγS binding on membranes of CHO cells expressing the human CB1 receptor (agonism); assay type: biochemical; design: expressed in transfected cells; membrane preparation
Description: Membrane preparation: CHO cells expressing the human CB1 receptor were grown to 80% confluence in Ham's F-12 Nutrient Medium (Invitrogen) containing 10% fetal bovine serum (Invitrogen), 1% pen/strep (Invitogen), 1% Nonessential amino acids (Invitrogen) and 500 μg/ml G418 (Invitrogen). Cells were released from flasks using Cell Dissociation Buffer (Invitrogen). Cells were pelleted by centrifugation at 500×G for 5 minutes. Membranes were prepared by resuspending cells in ice cold Assay Buffer (25 mM Tris pH 7.4, 5 mM EDTA, 5 mM EGTA, Complete Protease Inhibitor (Roche)). Cells were lysed with 12 strokes of a dounce homogenizer. Unlysed cells were pelleted by centrifugation at 500×G for 5 minutes. Membranes were pelleted by centrifugation at 25,000×G for 30 minutes. Membranes were resuspended in TEE, dounced 12 strokes, and pelleted a second time at 25,000×G for 30 minutes. Membrane pellet was resuspended in 50 mM Tris pH 7.4, 100 mM NaCl, 3 mM MgCl2, 0.2 mM EGTA, Complete Protease Inhibitor (Roche). Protein concentration was determined using the Micro-BCA Protein Assay Kit (Pierce) using BSA as a standard. Membranes were frozen and stored at −80 degrees Celsius until use.
GTPγS Binding: 40 μl of test compound was incubated with 20 μl of [^35S] GTPγS (Perkin Elmer) (1250 Ci/millimole) and 140 μl of membrane homogenate (5 μg/well) in polypropylene 96-well plates (Corning). Final reaction conditions were 50 mM Tris pH 7.4, 100 mM NaCl, 3 mM MgCl2, 0.2 mM EGTA, 0.04% BSA. After incubation at 37 degrees Celsius for 45 minutes reactions were harvested by vacuum filtration through Unifilter GF/B-96 filters (Perkin Elmer) using a FilterMate Plate Harvester (Perkin Elmer). Filters were rinsed 4 times with ice cold 50 mM Tris pH 7.4, 3 mM MgCl2, 0.2 mM EGTA and dried at 50 degrees Celsius for at least 30 minutes. 40 μl of Microscint-20 (Perkin Elmer) was added per well, and plates were counted using a Top-Count Microplate Scintillation Counter (Perkin Elmer). Binding data were analyzed and EC50 values were calculated using Graph Pad Prism 4.0 Software.

[3] = GTPγS EC50, human CB1, CHO cell membranes
[4] = human CB1, CHO cell membranes, read-out: GTPγS EC50

T1 sequence (P21554 whole entry): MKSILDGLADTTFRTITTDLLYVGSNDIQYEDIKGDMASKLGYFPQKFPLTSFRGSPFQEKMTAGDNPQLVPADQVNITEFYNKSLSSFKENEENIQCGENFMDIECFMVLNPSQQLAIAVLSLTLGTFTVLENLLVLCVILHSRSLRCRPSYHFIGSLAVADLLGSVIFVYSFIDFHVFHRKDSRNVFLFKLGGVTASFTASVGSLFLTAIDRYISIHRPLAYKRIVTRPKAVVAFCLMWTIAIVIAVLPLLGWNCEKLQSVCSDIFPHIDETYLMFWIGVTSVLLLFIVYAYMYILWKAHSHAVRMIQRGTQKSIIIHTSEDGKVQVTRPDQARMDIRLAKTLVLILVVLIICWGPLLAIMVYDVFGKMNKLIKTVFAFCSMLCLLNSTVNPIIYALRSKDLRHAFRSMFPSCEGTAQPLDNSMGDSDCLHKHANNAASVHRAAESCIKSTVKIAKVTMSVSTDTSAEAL

Structure (SMILES) | Ki ([1]; CB1 Ki) [nM] | EC50 [2, 3] [nM] | Ki ([1]; read-out: CB1 Ki) [nM] | EC50 [2, 4] [nM]
CC(C)(C)[C@H](NC(=O)c1nn(Cc2ccc(F)cc2)c2ccccc12)C(N)=O [Example 1, N-[(1S)-1-(Aminocarbonyl)-2,2-dimethylpropyl]-1-(4-fluorobenzyl)-1H-indazole-3-carboxamide] | 0.36 | 0.98 |  | 
CC(C)[C@H](NC(=O)c1nn(Cc2ccc(F)cc2)c2ccccc12)C(N)=O [Example 2, N-[(1S)-1-(aminocarbonyl)-2-methylpropyl]-1-(4-fluorobenzyl)-1H-indazole-3-carboxamide] | 0.9 | 23.2 |  | 
NC(=O)[C@@H](NC(=O)c1nn(Cc2ccc(F)cc2)c2ccccc12)c1ccccc1 [Example 3, N-[(1S)-2-amino-2-oxo-1-phenylethyl]-1-(4-fluorobenzyl)-1H-indazole-3-carboxamide] | 49.9 | 298 |  | 
CC(C)(C)[C@H](NC(=O)c1nn(Cc2ccccn2)c2ccccc12)C(N)=O [Example 6, N-[(1S)-1-(aminocarbonyl)-2,2-dimethylpropyl]-1-(pyridin-2-ylmethyl)-1H-indazole-3-carboxamide] | 12.6 | 160 |  | 
CC(C)(C)[C@H](NC(=O)c1nn(Cc2ccccc2)c2ccc(Br)cc12)C(N)=O [Example 7, N-[(1S)-1-(aminocarbonyl)-2,2-dimethylpropyl]-1-benzyl-5-bromo-1H-indazole-3-carboxamide] | 2.04 | 12.9 |  | 
CC(C)(C)[C@H](NC(=O)c1nn(Cc2ccccc2)c2ccc(-c3cccnc3)cc12)C(N)=O [Example 8, N-[(1S)-1-(Aminocarbonyl)-2,2-dimethylpropyl]-1-benzyl-5-pyridin-3-yl-1H-indazole-3-carboxamide] |  |  | 118 | 209
CC(C)(C)[C@H](NC(=O)c1nn(Cc2ccc(C#N)cc2)c2c(F)cccc12)C(=O)NCCO [Example 10, 1-(4-cyanobenzyl)-7-fluoro-N-[(1S)-1-{[(2-hydroxyethyl)amino]carbonyl}-2,2-dimethylpropyl]-1H-indazole-3-carboxamide] | 1.91 | 37.5 |  | 
CC(C)(C)[C@H](NC(=O)c1nn(Cc2ccc(F)cc2)c2ccccc12)C(=O)NCc1nnc(C(N)=O)o1 [Example 11, N-{(1S)-1-[({[5-(aminocarbonyl)-1,3,4-oxadiazol-2-yl]methyl}amino)carbonyl]-2,2-dimethylpropyl}-1-(4-fluorobenzyl)-1H-indazole-3-carboxamide] |  |  | 0.29 | 0.55
CC(C)(C)[C@H](NC(=O)c1nn(Cc2ccccc2)c2ncccc12)C(N)=O [Example 12, N-[(1S)-1-(aminocarbonyl)-2,2-dimethylpropyl]-1-benzyl-1H-pyrazolo[3,4-b]pyridine-3-carboxamide] | 11.5 | 302 |  | 
CC(C)(C)[C@H](NC(=O)c1nn(Cc2ccccc2F)c2ccccc12)C(N)=O [Example 13] | 0.73 | 11.9 |  | 
CC(C)C(NC(=O)c1nn(Cc2ccccc2F)c2ccccc12)C(N)=O (stereo not shown) [Example 17] | 4.69 | 149 |  | 
CC(C)(C)C(NC(=O)c1nn(Cc2cccc(F)c2)c2ccccc12)C(N)=O (stereo not shown) [Example 19] | 2.57 | 20.5 |  | 
CC(C)C(NC(=O)c1nn(Cc2cccc(F)c2)c2ccccc12)C(N)=O (stereo not shown) [Example 20] | 51.1 | 216 |  | 
CC(C)(C)C(NC(=O)c1nn(Cc2ccccc2)c2ccccc12)C(N)=O (stereo not shown) [Example 27] | 0.33 | 14.7 |  | 
CC(C)(C)C(NC(=O)c1nn(Cc2ccc(C#N)cc2)c2ccccc12)C(N)=O (stereo not shown) [Example 28] | 2.05 | 121 |  | 
CC(C)(C)C(NC(=O)c1nn(Cc2ccccc2C#N)c2ccccc12)C(N)=O (stereo not shown) [Example 30] | 9.22 | 78.9 |  | 
CC(C)(C)C(NC(=O)c1nn(Cc2ccccc2)c2cc(Br)ccc12)C(N)=O (stereo not shown) [Example 33] | 0.24 | 0.92 |  | 
CC(C)(C)C(NC(=O)c1nn(Cc2ccccc2)c2ccc(-c3ncco3)cc12)C(N)=O (stereo not shown) [Example 35] |  |  | 35.3 | 271
COC(=O)[C@@H](NC(=O)c1nn(Cc2ccccc2)c2ccccc12)C(C)(C)C [Example 38] | 0.14 | 2.42 |  | 
COc1cccc(CNC(=O)c2nn(Cc3ccccc3)c3ccccc23)c1 [Example 43] | 27.1 | 101 |  | 
CC(C)(C)[C@H](NC(=O)c1nn(Cc2ccccc2)c2cc(-c3cccnc3)ccc12)C(N)=O [Example 45] |  |  | 8.79 | 21.4
CC(C)(C)[C@H](NC(=O)c1nn(Cc2ccc(C#N)cc2)c2ccccc12)C(=O)NC1CC1 [Example 65] | 3.85 | 90 |  | 
CC(C)(C)[C@H](NC(=O)c1nn(Cc2ccc(C#N)cc2)c2ccccc12)C(=O)NCCCO [Example 67] | 46.5 | 827 |  | 

Structure (SMILES) | Ki ([1]; CB1 Ki) [nM] | EC50 [2, 3] [nM] | Ki ([1]; read-out: CB1 Ki) [nM] | EC50 [2, 4] [nM]
Cc1cc(CNC(=O)c2nn(Cc3ccc(C#N)cc3)c3ccccc23)c(C)o1 [Example 68] | 4.61 | 90.1 |  | 
CC(C)(C)[C@H](NC(=O)c1nn(Cc2ccc(C#N)cc2)c2ccccc12)C(=O)NCCO [Example 69] | 18.8 | 183 |  | 
CC(C)(C)[C@H](NC(=O)c1nn(Cc2ccc(C#N)cc2)c2ccccc12)c1nnc(N)o1 [Example 71] |  |  | 8.85 | 314
CC(C)(C)[C@H](NC(=O)c1nn(Cc2ccccc2)c2ccccc12)C(=O)NC[C@H](O)CO [Example 73] | 22.9 | 217 |  | 
CC(C)(C)C(NC(=O)c1nn(Cc2ccc(F)cc2)c2ccccc12)C(=O)NCC(O)CO (stereo not shown) [Example 77] | 5.39 | 48.1 |  | 
CC(C)(C)C(NC(=O)c1nn(Cc2ccc(F)cc2)c2ccccc12)c1nnc(NC(=O)C2CC2)o1 (stereo not shown) [Example 78] |  |  | 0.59 | 2.88
CC(C)(C)C(NC(=O)c1nn(Cc2ccc(F)cc2)c2ccccc12)C(=O)NCC(O)CO (stereo not shown) [Example 79] | 2.02 | 27.1 |  | 
CC(C)(C)C(NC(=O)c1nn(Cc2ccc(F)cc2)c2ccccc12)C(=O)NC1CC1 (stereo not shown) [Example 80] | 0.21 | 1.82 |  | 
CC(C)(C)C(NC(=O)c1nn(Cc2ccc(F)cc2)c2ccccc12)C(=O)NCCO (stereo not shown) [Example 81] | 0.32 | 0.98 |  | 
CC(C)(C)C(NC(=O)c1nn(Cc2ccc(F)cc2)c2ccccc12)C(=O)NCC(N)=O (stereo not shown) [Example 82] | 1.12 | 22.1 |  | 
CC(C)(C)C(NC(=O)c1nn(Cc2ccccc2)c2ccccc12)C(=O)NCCNC(N)=O (stereo not shown) [Example 83] | 15.3 | 720 |  | 
CC(C)(C)[C@H](NC(=O)c1nn(Cc2ccc(C#N)cc2)c2c(F)cccc12)C(=O)NC[C@H]1C[C@@H]1CO [Example 486] | 43.9 |  |  | 
CC(C)(C)[C@H](NC(=O)c1nn(Cc2ccc(C#N)cc2)c2cc(F)ccc12)C(=O)NC[C@H]1C[C@@H]1CO [Example 487] | 109 |  |  | 
CC(C)(C)[C@H](NC(=O)c1nn(Cc2ccc(C#N)cc2)c2ccccc12)C(=O)NC[C@H]1C[C@H]1CO [Example 489] | 127 |  |  | 
CC(C)(C)[C@H](NC(=O)c1nn(Cc2ccc(C#N)cc2)c2cc(F)ccc12)C(=O)NC[C@H]1C[C@H]1CO [Example 491] | 88.5 |  |  | 
CC(C)(C)[C@H](NC(=O)c1nn(Cc2ccc(F)cc2)c2ccccc12)C(=O)NCC(=O)NCC(=O)O [Example 495] |  |  | 130 | 
CC(C)(C)[C@H](NC(=O)c1nn(Cc2ccc(F)cc2)c2ccccc12)C(=O)NC[C@H](O)CN1CCCC1 [Example 503] |  |  | 321 | 
CCN(CC)C[C@@H](O)CNC(=O)[C@@H](NC(=O)c1nn(Cc2ccc(F)cc2)c2ccccc12)C(C)(C)C [Example 505] |  |  | 301 | 
CN(CCO)C[C@@H](O)CNC(=O)[C@@H](NC(=O)c1nn(Cc2ccc(F)cc2)c2ccccc12)C(C)(C)C [Example 507] |  |  | 212 | 
Cn1ccc(NC(=O)[C@@H](NC(=O)c2nn(Cc3ccc(F)cc3)c3ccccc23)C(C)(C)C)n1 [Example 515] | 37.5 |  |  | 
CC(C)(C)[C@H](NC(=O)c1nn(Cc2ccc(F)cc2)c2ccccc12)C(=O)NCC(=O)NCCCO [Example 521] |  |  | > 400 | 
CC(C)(C)[C@H](NC(=O)c1nn(Cc2ccc(F)cc2)c2ccccc12)C(=O)NCC(=O)NC[C@H](O)CO [Example 522] |  |  | > 400 | 
